From patent US8703813B2, “Compound with spiro chiral carbon backbone, preparation method thereof, and pharmaceutical composition containing the same” (SNU R & DB Foundation, priority 2008, dated 2014)

Columns and labels:
C3H/10T1/2 cells [1] = assay: Adipocyte differentiation inhibitory ability (Oil Red O staining); format: cell-based, mouse; conditions: C3H/10T1/2, 10 μg/ml
Procedure: C3H/10T1/2 cells, which are mouse mesenchymal progenitor cells purchased from ATCC, were diluted in DMEM (Dulbecco's Modified Eagle Medium) medium containing 5.958 g/L HEPES, 3.7 g/L sodium bicarbonate and 10% FBS (fetal bovine serum), and cultured in 24-well culture plates at a density of 4×10^4 cells/well, in the presence of 5% CO2 at 37° C. for 2 days. When the cultured cells were grown to 90˜100% confluency in the culture plates, the cells were cultured in DMEM medium containing 10% FBS, to which 5μ/ml insulin, 1 μM dexamethason, and 5 μM troglitazone were added, in the presence of 5% CO2 at 37° C. for 8 days, to induce differentiation into adipocyte. The medium was exchanged every other day during differentiation. The C3H/10T1/2 cell line, in which differentiation into the adipocyte was induced, was fixed with 3.7% formaldehyde at room temperature for 30 minutes. An oil Red O solution dissolved in isopropanol at a concentration of 0.5% was diluted in distilled water at a ratio of 6:4, filtered through a 0.2 μm filter, and poured to the fixed cell line, which was stained for 1 hour. In order to observe only the cells differentiated into the adiopocyte, the dye solution was removed and the cells were washed with distilled water two times.
116V specimen extracted from sponge was dissolved in DMSO solvent, and allowed to treat C3H/10T1/2 cell lines, which are mouse mesenchymal progenitor cells, at concentrations of 1, 2.5, 5, 10, and 20 μg/ml. […] Then, after specimens of the compound 1 (1163), the compound 2 (1162), the compound 3 (1161), and the compound 4 (1164), which were purely separated from the 116V and 116VI species were obtained, the same experiment was performed. […] Remarkable cytotoxicity was not observed in each of the specimens during differentiation of adipocytes (FIG. 8).

[2] = Solubility in organic solvents; format: physicochemical
C3H/10T1/2 cells [3] = assay: Osteoblast formation activity (calcium deposition assay, Alizarin Red S); format: cell-based, mouse; conditions: for osteoblast differentiation ability: C3H/10T1/2, calcium deposition; for concentration of maximum osteoblast differentiation activity: C3H/10T1/2, tested 1-20 ug/ml; for concentration at which cytotoxicity was observed: C3H/10T1/2 during osteoblast differentiation
Procedure: C3H/10T1/2 cells, which are mouse mesenchymal progenitor cells purchased from ATCC, were diluted in DMEM (Dulbecco's Modified Eagle Medium) medium containing 5.958 g/L HEPES, 3.7 g/L sodium bicarbonate, and 10% FBS (fetal bovine serum), and cultured in 24-well culture plates at a density of 4×10^4 cells/well, in the presence of 5% CO2 at 37° C. for 2 days. The cultured cells were grown to 90˜100% confluency in the culture plates, the cells were cultured in DMEM medium containing 10% FBS, to which 10 mM of β-glycerophosphate and 50μ/ml of ascorbic acid were added, in the presence of 5% CO2 at 37° C. for 6 days, to induce differentiation into osteoblast. The medium was exchanged every other day during differentiation. The C3H/10T1/2 cell line, in which differentiation into the osteoblast was induced, was washed with PBS (Phosphate Buffered Saline) once, and fixed with 70% ethanol at 20° C. for 1 hour. The cells after fixing were washed with cold PBS three times, and stained with 40 mM Alizarin Red S dye solution at room temperature for 20 minutes. The dye solution was removed and the cells were washed with distilled water three times in order to selectively observe only the cells differentiated into the osteoblast.
An aliquot 116V and an aliquot 116VI extracted and partitioned from sponges are dissolved in a DMSO solvent, and used to treat the C3H/10T1/2 cell line, mesenchymal progenitor cells, at concentrations of 1, 2.5, 5, 10, and 20 ug/ml. […] Since then, the same experiment was performed on the compound (1163), the compound 2 (1162), the compound 3 (1161), and the compound 4 (1164), which were purely separated from the aliquots 116V and 116VI, and as a result, it could be confirmed that the osteoblast differentiation ability was increased in the compounds 1, 3, and 4. […] To study a mechanism with respect to osteoblast differentiation ability, the C3H/10T1/2 cell lines were treated with the compound 1 and the compound 4 for 6 days, respectively. […] Also, the C3H/10T1/2 cell lines were treated with the compound 1 and the compound 4 for 6 days, respectively. […] Furthermore, it could be ascertained that combining of Runx2 and TAZ proteins was increased by treatment of the compounds and thus the activity of Runx2-meditated transcription was increased. The compound 5, which is an ester derivative of the compound 1 (1163), was synthesized in order to prepare a material having more excellent bioactivity, and the structure of the compound 5 obtained thus was determined. […] Therefore, the compounds of the present invention and derivatives thereof are expected to promote the differentiation of the osteoblast and thus play an innovative role in treatment of osteoporosis.

Runx2 and TAZ = assay: Western blot of osteoblast differentiation mark factors; format: cell-based, mouse; conditions: C3H/10T1/2 treated for 6 days
Procedure: (§1) An aliquot 116V and an aliquot 116VI extracted and partitioned from sponges are dissolved in a DMSO solvent, and used to treat the C3H/10T1/2 cell line, mesenchymal progenitor cells, at concentrations of 1, 2.5, 5, 10, and 20 ug/ml. […] Since then, the same experiment was performed on the compound (1163), the compound 2 (1162), the compound 3 (1161), and the compound 4 (1164), which were purely separated from the aliquots 116V and 116VI, and as a result, it could be confirmed that the osteoblast differentiation ability was increased in the compounds 1, 3, and 4. […] To study a mechanism with respect to osteoblast differentiation ability, the C3H/10T1/2 cell lines were treated with the compound 1 and the compound 4 for 6 days, respectively. […] Also, the C3H/10T1/2 cell lines were treated with the compound 1 and the compound 4 for 6 days, respectively. […] Furthermore, it could be ascertained that combining of Runx2 and TAZ proteins was increased by treatment of the compounds and thus the activity of Runx2-meditated transcription was increased. The compound 5, which is an ester derivative of the compound 1 (1163), was synthesized in order to prepare a material having more excellent bioactivity, and the structure of the compound 5 obtained thus was determined. […]

Runx2, Osteocalcin, Msx2 = assay: Real time PCR of osteoblast differentiation mark factors; format: cell-based, mouse; conditions: C3H/10T1/2 treated for 6 days, RTPCR
Procedure: as §1

SMILES	adipocyte differentiation ability (C3H/10T1/2 cells [1])	Solubility [2]	osteoblast differentiation ability (C3H/10T1/2 cells [3])	concentration of maximum osteoblast differentiation activity (C3H/10T1/2 cells [3])	concentration at which cytotoxicity was observed (C3H/10T1/2 cells [3])	protein expression of Runx2 and TAZ (Runx2 and TAZ)	transcription degree of differentiation mark factors (Runx2, Osteocalcin, Msx2, etc.) (Runx2, Osteocalcin, Msx2)
CC(=O)OCC1=C[C@@]2(C=C(C)C[C@H](/C=C(\C)CCC=C(C)C)O2)O[C@H]2C=C(C)C(=O)C[C@@H]12 [Compound 2]	remarkably decreased	Easily Dissolved in Organic Solvent of Acetone, Methanol, DMSO, etc.	–	–	–	–	–
CC(=O)O[C@@H]1C[C@H]2C(CO)=C[C@@]3(C=C(C)C[C@H](/C=C(\C)CCC=C(C)C)O3)O[C@H]2C=C1C [Compound 3]	remarkably decreased	Easily Dissolved in Organic Solvent of Acetone, Methanol, DMSO, etc.	increased	2.5 µg/mL	> 2500 ng/mL	–	–
CC(=O)O[C@H]1C[C@H]2C(CO)=C[C@@]3(C=C(C)C[C@H](/C=C(\C)CCC=C(C)C)O3)O[C@H]2C=C1C [Compound 4]	remarkably decreased	Easily Dissolved in Organic Solvent of Acetone, Methanol, DMSO, etc.	increased	5 µg/mL	> 5000 ng/mL	increased	remarkably increased
CCCC(=O)OCC1=C[C@@]2(C=C(C)C[C@H](/C=C(\C)CCC=C(C)C)O2)O[C@H]2C=C(C)C(=O)C[C@@H]12 [Compound 5]	–	–	promoted differentiation of the osteoblast in a similar degree as that of the compound 1	–	–	–	–
CC1=C[C@@]2(C=C(CO)[C@@H]3CC(=O)C(C)=C[C@@H]3O2)O[C@@H](/C=C(\C)C/C=C/C(C)(C)O)C1 [Compound 9]	–	Easily Dissolved in Organic Solvent of Acetone, Methanol, DMSO, etc.	–	–	–	–	–
C=C(C)C(O)CC/C(C)=C/[C@H]1CC(C)=C[C@@]2(C=C(CO)[C@@H]3CC(=O)C(C)=C[C@@H]3O2)O1 (some centres unmarked) [Compound 10]	–	Easily Dissolved in Organic Solvent of Acetone, Methanol, DMSO, etc.	–	–	–	–	–
